In experiment [1] the test system is A549 cells. Description: Proliferation Assay (A549 viability, Cell Titer Fluor, 72 hours). It is filed as cell-based. Particulars: Homo sapiens, A549, 72 h. An outline of the steps:
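A549 cells seeded at 1000 cells/well, rested 24 h, then exposed to compound in 0.5% DMSO for 72 h at 37 °C. Viability read by Cell Titer Fluor fluorescence; IC50 from four-parameter logistic fit.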

Experiment [2] concerns the target purified recombinant human GAC (GLS1) (Homo sapiens (Human), UniProt O94925). In words: GLS1 Enzymatic Activity Assay (dual-coupled enzymatic assay, resorufin/Amplex UltraRed readout).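 Further: glutamate from GAC coupled via glutamate oxidase and peroxidase to resorufin, read as fluorescence (ex 530, em 590 nm) kinetically or at 20 min, four-parameter logistic IC50 fit.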 It is filed as biochemical.

The structures appear in SMILES notation.

purified recombinant human GAC (GLS1), sequence (O94925 other isoform, or with tags, fused parts or gaps): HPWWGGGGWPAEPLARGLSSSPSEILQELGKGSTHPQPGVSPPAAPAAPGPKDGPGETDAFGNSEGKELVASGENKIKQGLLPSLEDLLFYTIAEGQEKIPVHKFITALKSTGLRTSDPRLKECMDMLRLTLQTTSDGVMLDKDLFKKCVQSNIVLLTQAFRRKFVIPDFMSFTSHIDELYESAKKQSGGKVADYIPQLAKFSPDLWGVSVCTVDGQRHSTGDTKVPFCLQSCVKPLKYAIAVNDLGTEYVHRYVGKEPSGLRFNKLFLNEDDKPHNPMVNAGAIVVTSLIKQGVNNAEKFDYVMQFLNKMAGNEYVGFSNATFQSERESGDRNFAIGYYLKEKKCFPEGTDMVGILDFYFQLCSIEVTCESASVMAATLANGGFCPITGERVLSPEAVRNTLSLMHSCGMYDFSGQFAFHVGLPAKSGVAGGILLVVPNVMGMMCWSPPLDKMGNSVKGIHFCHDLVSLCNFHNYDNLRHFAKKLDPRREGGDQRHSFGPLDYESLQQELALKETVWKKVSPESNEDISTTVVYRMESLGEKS

Usually EC50 stands for the concentration at which the effect is half-maximal. Read a low EC50 as a more potent agent. Broadly, the IC50 is the concentration at which inhibition is half-maximal. `O=C(Cc1cccc(OC(F)(F)F)c1)Nc1cn(CC(F)CCn2cc(C(=O)NCc3cccc(OC(F)(F)F)c3)nn2)nn1` (stereo not shown) [Example 339, 1-[3-fluoro-4-(4-{2-[3-(trifluoromethoxy)phenyl]acetamido}-1H-1,2,3-triazol-1-yl)butyl]-N-{[3-(trifluoromethoxy)phenyl]methyl}-1H-1,2,3-triazole-4-carboxamide] came in with an EC50 in experiment [1] of less than 100 nM. For the same molecule, the IC50 in experiment [2] was less than 100 nM.
With `O=C(Cc1cccc(OC(F)(F)F)c1)Nc1cn(CC(F)CCn2cc(C(=O)NCc3cc(OC(F)(F)F)ccc3F)nn2)nn1` (stereo not shown) [Example 340, 1-[3-fluoro-4-(4-{2-[3-(trifluoromethoxy)phenyl]acetamido}-1H-1,2,3-triazol-1-yl)butyl]-N-{[2-fluoro-5-(trifluoromethoxy)phenyl]methyl}-1H-1,2,3-triazole-4-carboxamide], in experiment [1], the concentration for a half-maximal effect (EC50) is less than 100 nM. Also, the 50% inhibitory concentration (IC50) in experiment [2] was less than 100 nM.
`O=C(Cc1cccc(OC(F)(F)F)c1)Nc1cn(CC(F)CCn2cc(C(=O)NCc3ncccc3F)nn2)nn1` (stereo not shown) [Example 341, 1-[3-fluoro-4-(4-{2-[3-(trifluoromethoxy)phenyl]acetamido}-1H-1,2,3-triazol-1-yl)butyl]-N-[(3-fluoropyridin-2-yl)methyl]-1H-1,2,3-triazole-4-carboxamide] displayed a 50% effective concentration (EC50) in experiment [1] of 100 to 500 nM. In addition, the IC50 in experiment [2] is less than 100 nM.
Consider `Cc1ccc(CC(=O)Nc2cn(CC(F)CCn3cc(C(=O)NCc4cccc(OC(F)(F)F)c4)nn3)nn2)cn1` (stereo not shown) [Example 342, 1-(3-fluoro-4-{4-[2-(6-methylpyridin-3-yl)acetamido]-1H-1,2,3-triazol-1-yl}butyl)-N-{[3-(trifluoromethoxy)phenyl]methyl}-1H-1,2,3-triazole-4-carboxamide], for which the concentration for a half-maximal effect (EC50) in experiment [1] is less than 100 nM. In experiment [2], the half-inhibitory concentration (IC50) was less than 100 nM.
In experiment [1], `Cc1ccc(CC(=O)Nc2cn(CC(F)CCn3cc(C(=O)NCc4cc(OC(F)(F)F)ccc4F)nn3)nn2)cn1` (stereo not shown) [Example 343, 1-(3-fluoro-4-{4-[2-(6-methylpyridin-3-yl)acetamido]-1H-1,2,3-triazol-1-yl}butyl)-N-{[2-fluoro-5-(trifluoromethoxy)phenyl]methyl}-1H-1,2,3-triazole-4-carboxamide] came in with an EC50 of less than 100 nM. Also, the half-inhibitory concentration (IC50) in experiment [2] is less than 100 nM.
In experiment [1], `Cc1ccc(CC(=O)Nc2cn(CC(F)CCn3cc(C(=O)NCc4ccccn4)nn3)nn2)cn1` (stereo not shown) [Example 344, 1-(3-fluoro-4-{4-[2-(6-methylpyridin-3-yl)acetamido]-1H-1,2,3-triazol-1-yl}butyl)-N-(pyridin-2-ylmethyl)-1H-1,2,3-triazole-4-carboxamide] came in with an EC50 greater than 5000 nM. Also, the half-inhibitory concentration (IC50) in experiment [2] was 100 to 500 nM.
For `Cc1ccc(CC(=O)Nc2cn(CC(F)CCn3cc(C(=O)NCc4ncccc4F)nn3)nn2)cn1` (stereo not shown) [Example 345, 1-(3-fluoro-4-{4-[2-(6-methylpyridin-3-yl)acetamido]-1H-1,2,3-triazol-1-yl}butyl)-N-[(3-fluoropyridin-2-yl)methyl]-1H-1,2,3-triazole-4-carboxamide], the 50% effective concentration (EC50) in experiment [1] is greater than 5000 nM. In addition, in experiment [2], the IC50 fell in the range of 100 to 500 nM.
`Cc1ccc(CNC(=O)c2cn(CCC(F)Cn3cc(NC(=O)Cc4ccc(C)nc4)nn3)nn2)cn1` (stereo not shown) [Example 346, 1-(3-fluoro-4-{4-[2-(6-methylpyridin-3-yl)acetamido]-1H-1,2,3-triazol-1-yl}butyl)-N-[(6-methylpyridin-3-yl)methyl]-1H-1,2,3-triazole-4-carboxamide] came in with an EC50 in experiment [1] of 500 to 5000 nM. Also, in experiment [2], the IC50 was less than 100 nM.
As to `O=C(Cc1ccccn1)Nc1cn(CC(F)CCn2cc(C(=O)NCc3cccc(OC(F)(F)F)c3)nn2)nn1` (stereo not shown) [Example 347, 1-(3-fluoro-4-(4-(2-(pyridin-2-yl)acetamido)-1H-1,2,3-triazol-1-yl)butyl)-N-(3-(trifluoromethoxy)benzyl)-1H-1,2,3-triazole-4-carboxamide], in experiment [1], the concentration for a half-maximal effect (EC50) was less than 100 nM. Also, the IC50 in experiment [2] is less than 100 nM.
With `O=C(CN1CC(F)C1)Nc1cn(CCCCn2cc(C(=O)NCc3cc(OC(F)(F)F)ccc3F)nn2)nn1` [Example 350, N-{[2-fluoro-5-(trifluoromethoxy)phenyl]methyl}-1-(4-{4-[2-(3-fluoroazetidin-1-yl)acetamido]-1H-1,2,3-triazol-1-yl}butyl)-1H-1,2,3-triazole-4-carboxamide], in experiment [1], the EC50 lay in the range of 100 to 500 nM. Besides, in experiment [2], the IC50 fell in the range of 100 to 500 nM.
Consider `O=C(CN1CC(F)(F)C1)Nc1cn(CCCCn2cc(C(=O)NCc3cc(Cl)ccc3F)nn2)nn1` [Example 352, N-[(5-chloro-2-fluorophenyl)methyl]-1-(4-{4-[2-(3,3-difluoroazetidin-1-yl)acetamido]-1H-1,2,3-triazol-1-yl}butyl)-1H-1,2,3-triazole-4-carboxamide], for which, in experiment [1], the EC50 was in the range of 500 to 5000 nM. In addition, the IC50 in experiment [2] lay within 100 to 500 nM.
In experiment [1], `O=C(CN1CC(F)(F)C1)Nc1cn(CCCCn2cc(C(=O)NCc3cc(OC(F)(F)F)ccc3F)nn2)nn1` [Example 353, 1-(4-{4-[2-(3,3-difluoroazetidin-1-yl)acetamido]-1H-1,2,3-triazol-1-yl}butyl)-N-{[2-fluoro-5-(trifluoromethoxy)phenyl]methyl}-1H-1,2,3-triazole-4-carboxamide] came in with a 50% effective concentration (EC50) of 100 to 500 nM. Moreover, in experiment [2], the IC50 was less than 100 nM.
In experiment [1], `O=C(CN1CCC(F)(F)C1)Nc1cn(CCCCn2cc(C(=O)NCc3cc(Cl)ccc3F)nn2)nn1` [Example 355, N-[(5-chloro-2-fluorophenyl)methyl]-1-(4-{4-[2-(3,3-difluoropyrrolidin-1-yl)acetamido]-1H-1,2,3-triazol-1-yl}butyl)-1H-1,2,3-triazole-4-carboxamide] displayed an EC50 of 100 to 500 nM. Further, the IC50 in experiment [2] is 100 to 500 nM.
Molecule `O=C(CN1CCC(F)(F)C1)Nc1cn(CCCCn2cc(C(=O)NCc3cc(OC(F)(F)F)ccc3F)nn2)nn1` [Example 356, 1-(4-{4-[2-(3,3-difluoropyrrolidin-1-yl)acetamido]-1H-1,2,3-triazol-1-yl}butyl)-N-{[2-fluoro-5-(trifluoromethoxy)phenyl]methyl}-1H-1,2,3-triazole-4-carboxamide] showed an EC50 in experiment [1] of less than 100 nM. Further, the IC50 in experiment [2] is less than 100 nM.
In experiment [1], `O=C(CN1CCC(F)(F)CC1)Nc1cn(CCCCn2cc(C(=O)NCc3cc(Cl)ccc3F)nn2)nn1` [Example 359, N-[(5-chloro-2-fluorophenyl)methyl]-1-(4-{4-[2-(4,4-difluoropiperidin-1-yl)acetamido]-1H-1,2,3-triazol-1-yl}butyl)-1H-1,2,3-triazole-4-carboxamide] registered an EC50 of 100 to 500 nM. The 50% inhibitory concentration (IC50) in experiment [2] lay within 100 to 500 nM.
With `O=C(CN1CCC(F)(F)CC1)Nc1cn(CCCCn2cc(C(=O)NCc3cc(OC(F)(F)F)ccc3F)nn2)nn1` [Example 360, 1-(4-{4-[2-(4,4-difluoropiperidin-1-yl)acetamido]-1H-1,2,3-triazol-1-yl}butyl)-N-{[2-fluoro-5-(trifluoromethoxy)phenyl]methyl}-1H-1,2,3-triazole-4-carboxamide], the EC50 in experiment [1] is less than 100 nM. For the same molecule, the IC50 in experiment [2] is less than 100 nM.
Regarding `O=C(Cc1ccccn1)Nc1cn(CC(F)CCn2cc(C(=O)NCc3cc(OC(F)(F)F)ccc3F)nn2)nn1` (stereo not shown) [Example 363, 1-(3-fluoro-4-{4-[2-(pyridin-2-yl)acetamido]-1H-1,2,3-triazol-1-yl}butyl)-N-{[2-fluoro-5-(trifluoromethoxy)phenyl]methyl}-1H-1,2,3-triazole-4-carboxamide], in experiment [1], the concentration for a half-maximal effect (EC50) was less than 100 nM. Besides, the IC50 in experiment [2] is less than 100 nM.

For the origin of these results see patent publication US10344025B2, “GLS1 inhibitors for treating disease” (Board of Regents, The University of Texas System, priority 2014, dated 2019).
